One series has as its system horses. The conditions noted are these: cited from earlier work.
For series [1] the following is noted: rat, in vivo; cited from earlier work.
Series [2] deals with Balb/c 3T3 cells. As to the kind of experiment: TPC assay in Balb/c 3T3. The series is classed as cell-based, mouse. As to conditions: for EC50: Mus musculus, read-out: EC50 (effective concentration). The method, then:
(§1) The HepG2 cell line was purchased from the American Type Culture Collection (ATCC® HB-8065™). The cells were cultured in Minimum Essential Medium Eagle (MEME) (Sigma–Aldrich Co. (St. Louis, MO, USA)). Normal murine embryonic fibroblasts, Balb/c 3T3 clone A31 cell line (gift from Department of Swine Diseases of the National Veterinary Research Institute in Pulawy) was cultured in Dulbecco’s Modified Eagle’s Medium (DMEM) (Invitrogen Corporations (Paisley, UK)). The media were supplemented with 10% BCS (Balb/c 3T3), 10% FBS (HepG2), 1% L-glutamine, and 1% antibiotic solution. The cells were maintained in 75 cm^2 cell culture flasks in humidified incubator at 37 °C, in an atmosphere of 5% CO2. The medium was refreshed every two or three days and the cells were trypsinized by 0.25% trypsin–0.02% EDTA after reaching 70–80% confluence. The initial cell viability was determined with the trypan blue exclusion test. Single cell suspensions were prepared and adjusted to a density of 2 × 10^5 cell/mL (HepG2) and 1 × 10^5 cell/mL (Balb/c 3T3). The cell suspension was transferred to 96-well plates (100 µL/well) and incubated for 24 h before exposure to the studied drugs.
(§2) The concentration ranges of the drugs were chosen according to their solubility and their plasma level. Each drug was dissolved in DMSO. The final concentration of DMSO was 0.1% or 0.2% in the medium for both samples and corresponding controls. […] All drug solutions in medium were freshly prepared and protected from light. SAL was tested in seven concentrations from 0.39 to 25 µg/mL. Tiamulin was added in two concentrations (1 and 10 µg/mL) or just one concentration (1 µg/mL) to cell lines or human hepatocytes, respectively. […] The cytotoxicity was assessed after 24 and 48 h of exposure of cell lines or after 12 and 24 h exposure of PHH. […]
(§3) The assay was based on staining total cellular protein [14]. […] The absorbance was measured at 595 nm in a microplate reader using blank as a reference. Cytotoxicity was expressed as a percentage of the negative control (0.1% or 0.2% DMSO).

Series [3] has as its system HepG2 cells. In words: TPC assay in HepG2. The series is classed as cell-based, human. As to conditions: for EC50: Homo sapiens, read-out: EC50 (effective concentration). How it is done: as §1, §2, §3
The subject of series [4] is Balb/c 3T3 cells. In words: MTT assay, cytotoxicity in Balb/c 3T3. The series is classed as cell-based. The conditions noted are these: Mus musculus, BALB/c3T3, Balb/c 3T3, MTT, mean ± SEM, n = 3, read-out: EC50 (effective concentration). How it is done:
as §1, with “The medium was refreshed every two or three days and the cells were trypsinized by 0.25% trypsin–0.02% EDTA after reaching 70–80% confluence.” left out, “Single cell suspensions were prepared and adjusted to a density of 2 × 10^5 cell/mL (HepG2) and 1 × 10^5 cell/mL (Balb/c 3T3). The cell suspension was transferred to 96-well plates (100 µL/well) and incubated for 24 h before exposure to the studied drugs.” left out
(§4) The concentration ranges of the drugs were chosen according to their solubility and their plasma level. […] The cytotoxicity was assessed after 24 and 48 h of exposure of cell lines or after 12 and 24 h exposure of PHH. […]
(§5) The metabolic activity of living cells was assessed by measuring the activity of dehydrogenases. […] The plate was shaken for 15 min at room temperature and transferred to a microplate reader to measure the absorbance at 570 nm, using a blank as a reference. Cytotoxicity was expressed as a percentage of the negative control (0.1% or 0.2% DMSO).
(In general: Formazan colour is commonly taken as a measure of viable cells.)

A further series relates to humans. The conditions noted are these: accidental poisoning: nausea, photophobia, limb weakness, tachycardia, muscle pain, mild rhabdomyolysis with myoglobinuria; cited from earlier work.
Series [5] concerns HepG2 cells. As to the kind of experiment: NRU assay in HepG2. As to conditions: for EC50: Homo sapiens, read-out: EC50 (effective concentration). The series is classed as cell-based, human. The method, then: as §1
The concentration ranges of the drugs were chosen according to their solubility and their plasma level. Each drug was dissolved in DMSO. The final concentration of DMSO was 0.1% or 0.2% in the medium for both samples and corresponding controls. […] All drug solutions in medium were freshly prepared and protected from light. SAL was tested in seven concentrations from 0.39 to 25 µg/mL. […] The cytotoxicity was assessed after 24 and 48 h of exposure of cell lines or after 12 and 24 h exposure of PHH. […]
The assay, based on staining of living cells by neutral red (NR), was performed according to the protocol described by Borenfreund and Puerner. […] After 10 min of shaking, the absorbance of the dissolved NR was measured at 540 nm using a blank as a reference. Cytotoxicity was expressed as a percentage of the negative control (0.1% or 0.2% DMSO).

A further series relates to rats. As to conditions: cited from earlier work.
For series [6] the following is noted: mouse, in vivo; cited from earlier work.
Series [7] has as its system HepG2 cells. As to the kind of experiment: LDH leakage assay in HepG2. The series is classed as cell-based. The conditions noted are these: Homo sapiens, mean ± SEM, n = 3, read-out: EC50 (effective concentration). How it is done: as §1, with “The medium was refreshed every two or three days and the cells were trypsinized by 0.25% trypsin–0.02% EDTA after reaching 70–80% confluence.” left out, “Single cell suspensions were prepared and adjusted to a density of 2 × 10^5 cell/mL (HepG2) and 1 × 10^5 cell/mL (Balb/c 3T3). The cell suspension was transferred to 96-well plates (100 µL/well) and incubated for 24 h before exposure to the studied drugs.” left out
as §4
(§6) The integrity of the plasma membrane was assessed through the test of lactate dehydrogenase (LDH) release, which was monitored using a commercially available Cytotoxicity Detection Kit (LDH) (Roche Diagnostics, Basel, Switzerland). […] The absorbance was measured at 492 nm in a microplate reader using a blank as a reference.
On the technique in general: LDH leaks from cells whose membrane has failed.

In series [8] the test system is HepG2 cells. As to the kind of experiment: MTT assay, cytotoxicity in HepG2. The series is classed as cell-based. The conditions noted are these: Homo sapiens, mean ± SEM, n = 3, read-out: EC50 (effective concentration). How it is done: as §1, with “The medium was refreshed every two or three days and the cells were trypsinized by 0.25% trypsin–0.02% EDTA after reaching 70–80% confluence.” left out, “Single cell suspensions were prepared and adjusted to a density of 2 × 10^5 cell/mL (HepG2) and 1 × 10^5 cell/mL (Balb/c 3T3). The cell suspension was transferred to 96-well plates (100 µL/well) and incubated for 24 h before exposure to the studied drugs.” left out
as §4, §5

The subject of series [9] is Balb/c 3T3 cells. As to the kind of experiment: LDH leakage assay in Balb/c 3T3. The series is classed as cell-based. As to conditions: Mus musculus, BALB/c3T3, Balb/c 3T3, LDH, mean ± SEM, n = 3, read-out: EC50 (effective concentration). The method, then:
as §1, with “The medium was refreshed every two or three days and the cells were trypsinized by 0.25% trypsin–0.02% EDTA after reaching 70–80% confluence.” left out, “Single cell suspensions were prepared and adjusted to a density of 2 × 10^5 cell/mL (HepG2) and 1 × 10^5 cell/mL (Balb/c 3T3). The cell suspension was transferred to 96-well plates (100 µL/well) and incubated for 24 h before exposure to the studied drugs.” left out
as §4, §6

Series [10] in a line: Cytotoxicity battery in human hepatoma cells. The series is classed as cell-based. The conditions noted are these: HepG2 human hepatoma cells, after 24 h, read-out: cytotoxic concentrations. The method, then:
as §2, with “respectively. Prednisolone was tested in one concentration—1 µg/mL independent of the type of cells.” for “respectively.”
as §5
The assay, based on staining of living cells by neutral red (NR), was performed according to the protocol described by Borenfreund and Puerner. […] After 10 min of shaking, the absorbance of the dissolved NR was measured at 540 nm using a blank as a reference. […]

The mark [11] stands for this setting: HepG2, 24 h, SAL alone or in both drug combinations (Figure S2).

Several values for one entry are separate records, joined by “and”; a condition that tells them apart may be missing. Identical values can stand only once. Like-named read-outs stand apart in the source and are kept apart here. Bounds are passed on as bounds.

With `CC[C@@H](C(=O)[C@@H](C)[C@@H](O)[C@H](C)[C@@H]1O[C@@H]([C@@H](CC)C(=O)O)CC[C@@H]1C)[C@H]1O[C@]2(C=C[C@@H](O)[C@]3(CC[C@@](C)([C@H]4CC[C@](O)(CC)[C@H](C)O4)O3)O2)[C@H](C)C[C@@H]1C` [SAL, salinomycin], the LD50 was 0.6 mg/kg b.w with horses and 50 mg/kg b.w in the series on rats. Also, the “unchanged SAL in excreta, share of administered dose” value in series [1] and in [6] was 2% throughout. Also, the “lowest concentration with significant effect on total protein content” value in the series on Balb/c 3T3 cells [2] (Balb/c 3T3, 24 h, SAL alone or in both drug combinations (Figure S3)) came out at 0.39 µg/mL; in the series on HepG2 cells [3] (setting [11]), 0.39 µg/mL. Moreover, the EC50 in the series on Balb/c 3T3 cells [2] (BALB/c3T3, 24 h) came to 7.9 ± 1.1 µg/mL; in the series on Balb/c 3T3 cells [2] (BALB/c3T3, 48 h), 1.4 ± 0.5 µg/mL; with HepG2 cells [3] (HepG2, 24 h), 13.3 ± 2.5 µg/mL; in the series on HepG2 cells [3] (HepG2, 48 h), 11.3 ± 1.3 µg/mL; with Balb/c 3T3 cells [4] (24 h exposure), 10.4 ± 1.4 µg/mL; with Balb/c 3T3 cells [4] (48 h exposure), 4.3 ± 0.9 µg/mL. Moreover, the EC50 in the series on HepG2 cells [5] (HepG2, 24 h) was 0.6 ± 0.2 µg/mL; with HepG2 cells [5] (HepG2, 48 h), < 0.39 µg/mL; with HepG2 cells [7] (24 h exposure), > 25 µg/mL; in the series on HepG2 cells [7] (48 h exposure), 13.8 ± 0.2 µg/mL; in the series on HepG2 cells [8] (24 h exposure) it was 15.4 ± 1.7 µg/mL; in the series on HepG2 cells [8] (48 h exposure) it was 12.9 ± 1.4 µg/mL. Besides, the results for the EC50 in the series with Balb/c 3T3 cells [9] (24 h exposure) and in the series on Balb/c 3T3 cells [9] (48 h exposure) were > 25 µg/mL and 23.1 ± 0.8 µg/mL, respectively. For the same compound, the “toxicity in a human” value with humans is “severe toxicity”. Also, in the series on HepG2 cells [5] (setting [11]), the “lowest concentration with significant effect on lysosomal activity” value worked out at 0.39 µg/mL. The EC50 at 24 h in series [10] is 800 nM to 20.5 µM and 0.6 µg/mL to 15.4 µg/mL.

(Values after publication PMC7179450, “Primary Human Hepatocytes, But not HepG2 or Balb/c 3T3 Cells, Efficiently Metabolize Salinomycin and Are Resistant to Its Cytotoxicity” (Molecules, 2020).)
